Where a SMILES comes first, the peptide text is derived from it. [ ]: non-standard residue; d: D form. The star is where a group is joined. dOrn = NCCC[C@@H](N)C(=O)O; Octanoyl = CCCCCCCC(=O)*; Orn = NCCC[C@H](N)C(=O)O
How the values were obtained:
A. baumannii = type: cell-based, Acinetobacter baumannii; settings: 18 h
Description: (§1) IV. Antimicrobial testing
(§2) All minimum inhibitory concentrations (MICs) were determined according to Clinical and Standards Laboratory Institute (CLSI) guidelines. Briefly, peptides were dissolved in Muller-Hinton Broth (MHB) and serial dilutions made across a 96 well plate. Each well was inoculated with a suspension of the required bacterial strain to reach a final inoculum of 5 x 10^5 colony forming units per mL. The MIC was taken as the lowest concentration with no visible growth after 18 hours.
(§3) V. Additional information on multidrug resistant strains
(§4) Organism Resistant Susceptible
Acinetobacter baumannii Cefotaxime Imipenem
Isolated from sewage contaminated Tetracycline Colistin water (Tripoli, Lebanon). Ofloxacin Tobramycin
(§5) Acinetobacter baumannii ACM 11 Ceftazimide
(§6) Acinetobacter baumannii ACM 29 Ceftazimide
(§7) Isolated from peritoneum of 3-year- Imipenem

A. baumannii ACM 11 = type: cell-based, Acinetobacter baumannii; settings: ACM 11, 18 h
Description: as §1, §2, §3, §4, §5

A. baumannii ACM 29 = type: cell-based, Acinetobacter baumannii; settings: ACM 29, 18 h
Description: as §1, §2
V. Additional information on multidrug resistant strains […]
Organism Resistant Susceptible […]
as §6, §7

E. cloacae = type: cell-based, Enterobacter cloacae; settings: 18 h
Description: as §1, §2

K. pneumoniae IMP 170 = type: cell-based, Klebsiella pneumoniae; settings: IMP 170, 18 h
Description: as §1, §2

K. pneumoniae IMP 177 = type: cell-based, Klebsiella pneumoniae; settings: IMP 177, 18 h
Description: as §1, §2

K. pneumoniae IMP 204 = type: cell-based, Klebsiella pneumoniae; settings: IMP 204, 18 h
Description: as §1, §2

K. pneumoniae IMP 216 = type: cell-based, Klebsiella pneumoniae; settings: IMP 216, 18 h
Description: as §1, §2

K. pneumoniae IMP 485 = type: cell-based, Klebsiella pneumoniae; settings: IMP 485, 18 h
Description: as §1, §2

K. pneumoniae = type: cell-based, Klebsiella pneumoniae; settings: 18 h
Description: as §1, §2

P. pseudoalcaligenes = type: cell-based, Pseudomonas pseudoalcaligenes; settings: 18 h
Description: as §1, §2

Equine erythrocytes = type: cell-based, horse; settings: red cells of equine, 100 μg mL^–1
Description: Having assessed the antimicrobial activity of peptides 1–8 we next proceeded to assess their haemolytic activities (Table 2). Haemolytic activity was tested at 100 μg mL^–1, as the concentration required for haemolysis should be higher than antimicrobial MICs. Equine erythrocytes were exposed to peptides 1–8 and incubated for 30 min at 37 °C (Table 2). […] The low haemolytic activity observed for Oct-TriA2 (2,8-D-Lys, 7-Lys) (8) is consistent with its poor antimicrobial activity. […]
VI. Haemolytic activity assays
A 96-well plate was first prepared to contain phosphate-buffered saline (PBS) solutions (100 μL) of tridecaptin analogues 1 – 8 (200 μg/mL) (experiments run in triplicate). 0.1 % Triton X-100 (100 μL) was used as a positive control, while PBS (100 μL) was used as a blank. After the plate had been prepared, defibrinated horse blood (0.5 mL, VWR International) was diluted with phosphate-buffered saline (9.5 mL) and gently shaken. The resulting mixture was centrifuged (5600 rpm, 5 min) using a Thermo Scientific Heraeus Labofuge 200 centrifuge and the supernatant carefully removed. This process was repeated three more times to remove any free hemoglobin. The resulting erythrocyte pellet was gently resuspended in 9.5 mL of PBS. Aliquots of the resulting mixture (100 μL) were added to the appropriate wells on the 96-well plate using a multichannel pipette and the plate incubated at 37 °C for 30 min. The samples were gently mixed by pipetting, and 20 μL of each was added to 200 μL of PBS. Once again, the samples were gently mixed. The diluted samples were then centrifuged (7000 rpm, 5 min) using a SciSpin MINI Microfuge. Supernatant (150 μL) from each sample was added to a new 96-well plate. The absorbance of each sample was individually measured at 415 nm using a Denovix DS-11 FX+ Spectrophotometer. Percent hemolysis of the peptides was calculated relative to Triton X- 100, while the PBS negative control was used as a blank.

[1] = tested on: panel of Gram-negative bacteria; experiment: MIC, summary over the panel of strains; type: cell-based; settings: highest concentration tested 100 μg mL^–1, all strains of the panel
From the text: Previous studies have shown that the tridecaptins have strong activity against clinically relevant Gram-negative strains.[8],[14] This includes A. baumannii and Enterobacteriaceae such as Klebsiella pneumoniae and Enterobacter spp., however P. aeruginosa is less susceptible. The World Health Organization (WHO) currently lists carbapenemase-producing strains of these Gram-negative bacteria as critical priority pathogens. We therefore decided to synthesize a library of novel tridecaptin analogues containing conservative substitutions at positions 2, 7, 8 and/or 12, and evaluate their activity against a panel of these strains (Table 1). This panel of Gram-negative bacteria contains environmental samples isolated from sewage contaminated water in Lebanon, as well as several strains isolated from patients at clinical settings. […]
MilliQ water and solvent B = 0.1 % TFA in ACN. […] High resolution mass spectrometry (HRMS) spectra of all peptides were recorded by Analytical Services and Environmental Projects (ASEP) at Queen’s University Belfast on a Waters LCT Premier ToF mass spectrometer using the electrospray ionisation (ESI) technique. […]
(§8) All minimum inhibitory concentrations (MICs) were determined according to Clinical and Standards Laboratory Institute (CLSI) guidelines. […]

K. pneumoniae strains = experiment: MIC; type: cell-based, Klebsiella pneumoniae; settings: against the K. pneumoniae strains
From the text: (§9) We next proceeded to replace the D-Dab and L-Dab residues, found at positions 2 and 8, and 7 respectively. […] It was previously shown that D-Dab8 is essential for antimicrobial activity,[18] and an experimentally derived model of Oct-TriA1 bound to its cellular receptor, the peptidoglycan intermediate lipid II, supports this observation.[12] Therefore we first prepared peptides in which only the amino acids at positions 2 and 7 were substituted with Lys or Orn (D/L configuration retained). […] Finally, the Lys/Orn substitutions at the 2, 7 and 8 positions were also incorporated into TriA2 analogues, yielding Oct-TriA2 (2,8-D-Orn, 7-Orn) (7) and Oct-TriA2 (2,8-D-Lys, 7-Lys) (8).
(§10) MilliQ water and solvent B = 0.1 % TFA in ACN. A gradient method was employed, starting from 20 % B and 80 % A for 2 min, ramping up to 95 % B over 18 min, ramping down to 20 % B over 0.1 min before staying at 20 % B for 3.9 min. High resolution mass spectrometry (HRMS) spectra of all peptides were recorded by Analytical Services and Environmental Projects (ASEP) at Queen’s University Belfast on a Waters LCT Premier ToF mass spectrometer using the electrospray ionisation (ESI) technique.
as §1, §8

A. baumannii strains = experiment: MIC; type: cell-based, Acinetobacter baumannii; settings: against the A. baumannii strains
From the text: as §9, §10, §1, §8

[2] = tested on: K. pneumoniae and E. cloacae strains; type: cell-based, Klebsiella pneumoniae, Enterobacter cloacae; settings: 18 h
Description: The first amino acid substitution we explored was replacement of D-allo-Ile12 with D-Val, which occurs in natural TriA2 variants. Fmoc-D-Val is ∼30 times less expensive than Fmoc-D-allo-Ile (according to Fluorochem pricing). […] The minimum inhibitory concentrations (MICs) of Oct-TriA1 against K. pneumoniae and E. cloacae strains were typically 6.25 μg mL^–1 but […] against carbapenemase-producing A. baumannii strains (25 μg mL^–1).
as §10, §1
All minimum inhibitory concentrations (MICs) were determined according to Clinical and Standards Laboratory Institute (CLSI) guidelines. Briefly, peptides were dissolved in Muller-Hinton Broth (MHB) and serial dilutions made across a 96 well plate. Each well was inoculated with a suspension of the required bacterial strain to reach a final inoculum of 5 x 10^5 colony forming units per mL. […]

Row | SMILES | Peptide MIC (A. baumannii) | Peptide MIC (A. baumannii ACM 11) | Peptide MIC (A. baumannii ACM 29) | Peptide MIC (E. cloacae) | Peptide MIC (K. pneumoniae IMP 170) | Peptide MIC (K. pneumoniae IMP 177) | Peptide MIC (K. pneumoniae IMP 204) | Peptide MIC (K. pneumoniae IMP 216) | Peptide MIC (K. pneumoniae IMP 485) | Peptide MIC (K. pneumoniae) | Peptide MIC (P. pseudoalcaligenes) | % haemolysis (Equine erythrocytes) | antimicrobial activity at the highest concentrations tested [1] | antimicrobial activity relative to Oct-TriA1 (K. pneumoniae strains) | antimicrobial activity relative to Oct-TriA1 (A. baumannii strains) | minimum inhibitory concentrations (MICs), typical value [2]
1 | CCCCCCCC(=O)N[C@@H](C(=O)N[C@H](CCCCN)C(=O)NCC(=O)N[C@H](CO)C(=O)N[C@H](Cc1c[nH]c2ccccc12)C(=O)N[C@@H](CO)C(=O)N[C@@H](CCCCN)C(=O)N[C@H](CCCCN)C(=O)N[C@@H](Cc1ccccc1)C(=O)N[C@@H](CCC(=O)O)C(=O)N[C@H](C(=O)N[C@@H](C(=O)N[C@@H](C)C(=O)O)C(C)C)C(C)C)C(C)C [Peptide 8, Oct-TriA2 (2,8-D-Lys, 7-Lys)] (HELM PEPTIDE1{[CCCCCCCC(=O)[*:2]].[dV].[dK].G.[dS].[dW].S.K.[dK].F.E.V.[dV].A}$$$$V2.0) | >100 μg mL^–1 | >100 μg mL^–1 | >100 μg mL^–1 | >100 μg mL^–1 | >100 μg mL^–1 | >100 μg mL^–1 | >100 μg mL^–1 | >100 μg mL^–1 | >100 μg mL^–1 | >100 μg mL^–1 | >100 μg mL^–1 | 2.8% | no antimicrobial activity | – | – | –
2 | CCCCCCCC(=O)N[C@@H](C(=O)N[C@H](CCCN)C(=O)NCC(=O)N[C@H](CO)C(=O)N[C@H](Cc1c[nH]c2ccccc12)C(=O)N[C@@H](CO)C(=O)N[C@@H](CCCN)C(=O)N[C@H](CCCN)C(=O)N[C@@H](Cc1ccccc1)C(=O)N[C@@H](CCC(=O)O)C(=O)N[C@H](C(=O)N[C@@H](C(=O)N[C@@H](C)C(=O)O)C(C)C)C(C)C)C(C)C [Peptide 7, Oct-TriA2 (2,8-D-Orn, 7-Orn)] (Octanoyl-[dV][dOrn]G[dS][dW]S[Orn][dOrn]FEV[dV]A-OH) | 25 μg mL^–1 | 25 μg mL^–1 | 50 μg mL^–1 | 12.5 μg mL^–1 | 25 μg mL^–1 | 12.5 μg mL^–1 | 12.5 μg mL^–1 | 12.5 μg mL^–1 | 12.5 μg mL^–1 | 50 μg mL^–1 | 6.25 μg mL^–1 | 39.8% | – | two- to four-fold less active | comparable activity | –
3 | CCCCCCCC(=O)N[C@@H](C(=O)N[C@H](CCN)C(=O)NCC(=O)N[C@H](CO)C(=O)N[C@H](Cc1c[nH]c2ccccc12)C(=O)N[C@@H](CO)C(=O)N[C@@H](CCN)C(=O)N[C@H](CCN)C(=O)N[C@@H](Cc1ccccc1)C(=O)N[C@@H](CCC(=O)O)C(=O)N[C@H](C(=O)N[C@@H](C(=O)N[C@@H](C)C(=O)O)[C@@H](C)CC)C(C)C)C(C)C [Peptide 1, Oct-TriA1, reference compound] | 12.5 μg mL^–1 | 25 μg mL^–1 | 25 μg mL^–1 | 3.13 μg mL^–1 | 6.25 μg mL^–1 | 6.25 μg mL^–1 | 12.5 μg mL^–1 | 6.25 μg mL^–1 | 6.25 μg mL^–1 | 6.25 μg mL^–1 | 50 μg mL^–1 | 89.6% | – | – | – | ~6.25 μg mL^–1

— publication PMC6457190, “Tridecaptin-inspired antimicrobial peptides with activity against multidrug-resistant Gram-negative bacteria” (MedChemComm, 2019)
